Laboratory results reported in patent publication US9155761B2, “Method for the treatment of cancer” (UNIVERSITY COLLEGE CORK, NATIONAL UNIVERSITY OF IRELAND, …, priority 2009, dated 2015).
Entries after “also recorded” stand apart in the source; their conditions may differ. Like-named read-outs stand apart in the source and are kept apart here. Residues, ends and D or L forms follow the SMILES beside them. *: point of attachment. Cbz = O=C(OCc1ccccc1)*; CH2F = FC*

How the values were obtained:
[1] = tested on: KYSE450; test: Evaluation of cell death morphology by light microscopy; format: cell-based, human
Method: (§1) Morphological features of cells treated with 5-fluorouracil (5-FU)/cisplatin, without and with 3-MA, LY294002, Bafilomycin, Lithium chloride, rapamycin or HA14-I were examined by light microscopy. Morphologies of treated cells were examined 24 and 48 hours post treatment, treatment times are referred to in figure legends. Aliquots of vehicle control and drug treated cells were cytospun onto glass slides and stained with Rapi-Diff (Braidwood laboratories, UK). The extent of apoptotic and non-apoptotic cell death was determined by counting the cells in at least three fields of view per slide, with an average of ˜100 cells per field. Apoptotic cell death is characterized by the presence of two or more of the following morphological features: cell shrinkage, chromatin condensation, DNA degradation and fragmentation into ‘apoptotic bodies’, within an intact plasma membrane. Autophagic cell death was identified by clear elevation of cytoplasmic vesicles, loss of cytoplasmic material, pyknosis of the nuclear material and an intact nuclear membrane. Cytospin images are representative of at least three independent experiments.

[2] = tested on: OE21
Method: as §1

[3] = tested on: OE21; test: MTT viability and recovery assay; format: cell-based, human
Method: (§2) Viability of esophageal cells was assessed using the MTT reduction assay. Cells are seeded at 2×10^4 (OE33/OE19) and 1×10^4 (OE21/KYSE450) cells per cm^2, treated for 48-96 hours and incubated for an additional 60 minutes at 37° C. in 0.5 mg/ml MTT dye. Viable, metabolizing cells reduce MTT dye, producing a dark formazan product, with absorbance read at 562 nm, reference wavelength 620 nm. To assess recovery, at 48 hours post treatment, in replicate plates (identical seeding & treatment times), all drugs were removed, culture medium was replaced, and these cells were cultured for a further 48-96 hours, to monitor their ability to recover and MTT assay was repeated.
(§3) In analysis of MTT data, values are presented as the Mean absorbance+/−Standard Error of the Mean (S.E.M) for four independent experiments. Statistical analysis was performed with paired Student's t-test. Values of p<0.05 were considered statistically significant. Asterisks indicate the level of significance.

[4] = tested on: KYSE450; format: cell-based, human
Method: as §2, §3

[5] = tested on: LC3 in KYSE450 cells; test: LC3 / GFP-LC3 processing and distribution (Western blot, fluorescence microscopy); format: cell-based, human
Method: (§4) Total cellular protein extracts were prepared by scraping the cells into modified RIPA buffer (50 mM Tris HCl (pH 7.4), 150 mM NaCl, 0.25% Sodium deoxycholate, 1% Igepal, protease inhibitors 1 mM EDTA, 1× Pefabloc, 1× protease inhibitor cocktail, 1 mM Na3VO4, 1 mM NaF). All protein samples were separated by SDS-PAGE (10/12%) and electrophoretically transferred onto nitrocellulose membrane. All primary antibodies were incubated overnight at 4° C.: anti-phospho mTOR (Ser 2448) and anti-p70^S6K (Thr 389) (Cell Signaling Technologies, UK), anti-Beclin-1 (BD Biosciences, UK) and anti-LC3 (Medical & Biological Laboratories, Japan). The membranes were incubated with the relevant horseradish peroxidase conjugated secondary antibodies (DakoCytomation, Dublin) and detected by chemiluminescence (ECL Amersham, UK).
(§5) To visualize and quantify the formation of autophagic vesicles, the green fluorescent protein (GFP)-LC3 (pEGFP-LC3) expression vector, kindly supplied by Dr. T. Yoshimori (National Institute of Genetics, Japan) was used. Cells were transiently transfected with the Amaxa electroporation system according to the supplier's protocol. Twenty-four hours post transfection, cells were treated with 5-FU and/or Cisplatin, fixed in 4% paraformaldehyde in PBS and transferred onto slides using a non-fluorescent fixative for analysis by fluorescence microscopy. Alternatively, Western Blot analysis was used to assess the expression and processing of LC3. […] The membrane sequestered, lipid-conjugated form of LC3-II remains with the autophagosome membrane after the vesicle has formed, and levels of both isoform are detected by Western Blot. Transfection efficiency was consistent for a given cell line, OE33 and KYSE450 cell lines (˜60-70%) compared to OE19 and OE21 cell lines (˜30%).

[6] = tested on: LC3 in OE33 cells; test: as above; format: cell-based, human
Method: as §4, §5

[7] = tested on: LC3 in OE19 cells; test: as above; format: cell-based, human
Method: as §4, §5

[8] = tested on: OE19; test: MTT viability and recovery assay; format: cell-based, human; details: 10 μM cisplatin, 48 hours
Method: as §2, §3

[9] = tested on: OE33; test: MTT viability and recovery assay; format: cell-based, human; details: 10 μM cisplatin, 48 hours
Method: as §2, §3

[10] = tested on: OE21; test: Monodansylcadaverine (MDC)-labelled vacuoles; format: cell-based, human; details: 25 μM
Method: (§6) MDC is an autofluorescent weak base that accumulates in acidic lysosomal vacuoles, showing high selectivity for autophagosomes, due to the high level of unhydrolyzed membrane lipids from engulfed organelles, which enhance MDC fluorescence. Cells were incubated with 0.1 mM MDC in PBS at 37° C. for 10 minutes (Biederbick et al., 1995), washed and immediately analyzed by fluorescent microscopy.

[11] = tested on: OE19; test: Monodansylcadaverine (MDC)-labelled vacuoles; format: cell-based, human; details: 25 μM
Method: as §6

[12] = tested on: KYSE450; test: Monodansylcadaverine (MDC)-labelled vacuoles; format: cell-based, human; details: 25 μM
Method: as §6

[13] = tested on: OE33; test: Monodansylcadaverine (MDC)-labelled vacuoles; format: cell-based, human; details: 25 μM
Method: as §6

[14] = tested on: active caspase-3 in OE19 cells; test: Active caspase-3 by flow cytometry; format: cell-based, human; details: 48 hours after treatment
Method: (§7) To examine control and 5-Fluorouracil treated cells for evidence of caspase activity cells were processed by trypsinization, 48 hours after treatment. […] This was detected with an anti rabbit FITC conjugated secondary antibody, and samples were analyzed by FACScan at 530 nm (FL-1). Percentages indicate the proportion of cells with active caspase-3, detected as an increase in the number of FITC (FL-1) labelled cells.

[15] = tested on: active caspase-3 in OE21 cells; test: Active caspase-3 by flow cytometry; format: cell-based, human; details: 48 hours after treatment
Method: as §7

[16] = tested on: active caspase-3 in OE33 cells; test: Active caspase-3 by flow cytometry; format: cell-based, human; details: 48 hours after treatment
Method: as §7

[17] = tested on: active caspase-3 in KYSE450 cells; test: Active caspase-3 by flow cytometry; format: cell-based, human; details: 48 hours after treatment, range of concentrations
Method: as §7

[18] = tested on: LC3 in OE21 cells; test: LC3 / GFP-LC3 processing and distribution (Western blot, fluorescence microscopy); format: cell-based, human; details: 5-FU or cisplatin (images not shown)
Method: as §4, §5

[19] = tested on: OE19; test: Evaluation of cell death morphology by light microscopy; format: cell-based, human
Method: as §1

[20] = tested on: OE33; test: as above; format: cell-based, human; details: 5-FU (50 μM) or cisplatin (40 μM), 48 hours
Method: as §1

[21] = tested on: OE21; test: Mitochondrial depolarization, JC-1 probe; format: cell-based, human; details: 48 hour treatment
Method: (§8) Mitochondrial membrane potential was determined using the JC-1 probe (Molecular Probes). In non-apoptotic cells, JC1 accumulates as aggregates in the mitochondria, which stain red (FL2; 590 nm). At the onset of apoptosis, a loss of mitochondrial membrane potential (ΔΨm) releases the aggregated JC1, returning it to its monomeric form, which stains the cytosol green (FL1; 530 nm). Therefore, fluorescence of the JC-1 probe in the FL-2 channel decreases as mitochondrial membrane integrity is lost, while the fluorescence in FL-1 channel increases. Cells were incubated in JC1 (7.5 μg/ml) at 37° C. for 15 mins, and washed prior to analysis by flow cytometry (FACScan, Becton Dickinson). Percentages denote the proportion of cells with depolarised mitochondria following 48 hour incubation with 5-Fluorouracil and represent at least three independent experiments.

[22] = tested on: OE19; test: Mitochondrial depolarization, JC-1 probe; format: cell-based, human; details: 48 hour treatment
Method: as §8

[23] = tested on: KYSE450; test: Mitochondrial depolarization, JC-1 probe; format: cell-based, human; details: 48 hour treatment
Method: as §8

[24] = tested on: OE33; test: Mitochondrial depolarization, JC-1 probe; format: cell-based, human; details: 48 hour treatment
Method: as §8

[25] = 10 nM, 24 and 48 hours post treatment
[26] = 5-FU (50 μM) or cisplatin (40 μM), 48 hours
[27] = 40 μM cisplatin, 48 hours (FIG. 1c)

SMILES: CCOC(=O)C1=C(N)Oc2ccc(Br)cc2C1C(C#N)C(=O)OCC (stereo not drawn) [HA14-1]
- morphology ([1]; HA14-1 (5 μM) and/or 5-FU (50 μM), 24 hours): rarely causes apoptosis
- morphology ([1]; HA14-1 (5 μM) and/or 5-FU (50 μM), 24 hours, listed as HA14-I): the induction of apoptosis is observed, but at very low levels
- morphology ([1]; HA14-1 (10 μM) without and with 5-FU (50 μM), 24 hours): the induction of apoptosis is apparent, but again at low levels
- morphology ([1]; HA14-1 (20 μM), 24 hours): rarely causes apoptosis
- morphology ([1]; HA14-1 (20 μM), 24 hours, listed as HA14-I): the induction of apoptosis is apparent, but again at low levels
- morphology ([1]; HA14-1 (30 μM), 24 hours): apoptotic cells are visible
- morphology ([1]; HA14-1 (30 μM), 24 hours, listed as HA14-I): induced clear levels of apoptotic cell death
- morphology ([1]; HA14-1 (30 μM), 48 hours): apoptotic cells are visible
- morphology ([1]; HA14-1 (30 μM), 48 hours, listed as HA14-I): induced clear levels of apoptotic cell death

SMILES: COC(=O)C[C@H](NC(=O)[C@H](C)NC(=O)[C@@H](NC(=O)OCc1ccccc1)C(C)C)C(=O)CF [zVAD-fmk] (Cbz-Val-Ala-Asp(OMe)-CH2F)
- inhibition of apoptosis induced by 5-FU ([2]; zVAD-fmk (25 μM) for 2 hours prior to 5-FU treatment): completely inhibited

SMILES: CO/C1=C\C(C)=C\[C@@H](C)[C@@H](O)[C@@H](C)C/C(C)=C/C=C/[C@H](OC)[C@@H]([C@@H](C)[C@@H](O)[C@H](C)[C@@]2(O)C[C@@H](O)[C@H](C)[C@@H](C(C)C)O2)OC1=O [Bafilomycin, Bafilomycin A1]
- cell death (MTT) [3]: induced significant cell death
- cytotoxicity (MTT) ([4]; Bafilomycin 100 nM): cytotoxic alone
- viability (MTT) ([4]; Bafilomycin 10-100 nM): reduction in MTT
- morphology ([2]; Bafilomycin 1.0 nM alone or with 5-FU (30 μM)): significant levels of vesicular accumulation
- levels of endogenous LC3 (Western blot) [5, 25]: induced an accumulation in the levels of endogenous LC3
- levels of endogenous LC3 (Western blot) [6, 25]: induced an accumulation in the levels of endogenous LC3
- GFP-LC3 distribution (fluorescence microscopy) ([7]; 10 nM bafilomycinA1, 24 and 48 hours): accumulation of GFP-LC3 tagged autophagosomes
- morphology ([1]; Bafilomycin 10.0 nM alone or with 5-FU (50 μM)): significant levels of vesicular accumulation

SMILES: Cn1cnc(N)c2ncnc1-2 [3-MA, 3-Methyladenine]
- morphology ([2]; 3-MA without and with 5-FU (30 μM), 48 hours): did not significantly affect morphology
- morphology ([1]; 3-MA (10.0 μM) without and with 5-FU (50 μM), 48 hours): did not significantly affect morphology

SMILES: N.N.[Cl][Pt][Cl] [cisplatin]
- cell viability (MTT) ([3]; 10 μM cisplatin, 48 hours): significant effects on cell viability
- cell viability (MTT) [8]: only marginally affected
- cell viability (MTT) [9]: significant effects on cell viability
- MDC staining pattern [10]: MDC staining patterns are diffuse
- MDC staining pattern [11]: accumulation of MDC (bright blue punctate staining) throughout the cytoplasm
- MDC staining pattern [12]: accumulation of MDC (bright blue punctate staining) throughout the cytoplasm
- MDC staining pattern [13]: MDC staining patterns are diffuse
- cell viability (MTT) ([4]; 10 μM cisplatin, 48 hours): only marginally affected
- active caspase-3 [14]: do not show caspase-3 activity
- active caspase-3 [15]: displayed active caspase-3
- active caspase-3 [16]: displayed active caspase-3
- active caspase-3 [17]: do not show caspase-3 activity
- apoptotic cell death ([2]; 40 μM cisplatin, 48 hours): 31%
- non-apoptotic cell death ([2]; 40 μM cisplatin, 48 hours): 3%
- cell death morphology [2, 26]: predominantly apoptotic cell death morphology
- GFP-LC3 distribution (fluorescence microscopy) [18]: Diffuse cytoplasmic localization of GFP-LC3
- GFP-LC3 distribution (fluorescence microscopy) ([5]; 5-FU or cisplatin (data not shown)): Redistribution of GFP-LC3 from a diffuse cytosolic to a punctate autophagosome-associated pattern
- GFP-LC3 distribution (fluorescence microscopy) ([6]; 5-FU or cisplatin (images not shown)): Diffuse cytoplasmic localization of GFP-LC3
- GFP-LC3 distribution (fluorescence microscopy) ([7]; 5-FU (25 & 50 μM) or cisplatin (10 & 25 μM)): Redistribution of GFP-LC3 from a diffuse cytosolic to a punctate autophagosome-associated pattern; also recorded: bright punctate patterns of GFP-LC3 fluorescence
- apoptosis [19, 27]: 0.5%
- non-apoptotic cell death [19, 27]: 38%
- cell death morphology [19, 26]: predominantly non-apoptotic morphology
- cell death morphology [1, 26]: predominantly non-apoptotic morphology
- cell death morphology [20]: predominantly apoptotic cell death morphology
- mitochondrial depolarization (JC-1) [21]: mitochondrial depolarization
- mitochondrial depolarization (JC-1) [22]: do not show caspase-3 activity or mitochondrial membrane depolarization
- mitochondrial depolarization (JC-1) [23]: do not show caspase-3 activity or mitochondrial membrane depolarization
- mitochondrial depolarization (JC-1) [24]: mitochondrial depolarization
